pIC50: −log10 of the molar value.

The assay has as its target T1, human TLR7 (Homo sapiens, UniProt Q9NYK1).
T1 construct: host or cells: HEK293 (HEK-Blue hTLR7)
T1 sequence (Q9NYK1 27-1049): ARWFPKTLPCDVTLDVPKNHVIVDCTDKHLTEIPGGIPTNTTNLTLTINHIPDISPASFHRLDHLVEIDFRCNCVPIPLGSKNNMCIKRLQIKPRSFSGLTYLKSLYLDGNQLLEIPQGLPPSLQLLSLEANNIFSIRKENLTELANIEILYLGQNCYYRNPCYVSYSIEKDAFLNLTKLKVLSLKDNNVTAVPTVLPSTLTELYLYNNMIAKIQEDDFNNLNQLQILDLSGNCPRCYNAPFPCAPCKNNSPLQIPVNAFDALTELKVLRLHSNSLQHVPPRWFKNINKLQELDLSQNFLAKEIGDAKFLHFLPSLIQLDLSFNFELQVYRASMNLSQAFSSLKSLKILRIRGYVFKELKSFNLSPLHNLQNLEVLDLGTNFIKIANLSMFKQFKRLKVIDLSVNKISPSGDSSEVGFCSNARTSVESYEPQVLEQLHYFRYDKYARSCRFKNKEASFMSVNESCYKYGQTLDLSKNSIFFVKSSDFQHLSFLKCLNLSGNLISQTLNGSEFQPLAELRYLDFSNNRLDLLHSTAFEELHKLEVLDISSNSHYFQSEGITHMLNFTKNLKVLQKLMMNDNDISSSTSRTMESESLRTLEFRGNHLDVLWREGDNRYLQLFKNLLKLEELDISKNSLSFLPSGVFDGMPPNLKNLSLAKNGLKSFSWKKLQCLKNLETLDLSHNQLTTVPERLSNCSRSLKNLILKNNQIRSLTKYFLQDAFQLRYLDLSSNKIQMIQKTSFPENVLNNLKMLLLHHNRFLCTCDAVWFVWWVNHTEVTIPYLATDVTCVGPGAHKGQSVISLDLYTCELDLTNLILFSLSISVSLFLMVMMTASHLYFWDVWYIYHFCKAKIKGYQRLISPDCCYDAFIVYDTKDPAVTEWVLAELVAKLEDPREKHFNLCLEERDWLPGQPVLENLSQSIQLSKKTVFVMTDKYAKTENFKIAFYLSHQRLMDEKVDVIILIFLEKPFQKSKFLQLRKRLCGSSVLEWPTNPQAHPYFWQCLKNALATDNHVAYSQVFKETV
Briefly: HEK293-Blue-hTLR-7 cells assay. The class given is cell-based. The note with it: HEK293-Blue-hTLR7 cells, R848 stimulation, 20 hrs, SEAP reporter; read-out: HEK/hTLR7 IC50. The protocol:
The following tests were carried out in order to determine the activity of the compounds of formula (I) and (Ia) in HEK293-Blue-hTLR-7/8/9 cells assay.
HEK293-Blue-hTLR-7 cells assay:
A stable HEK293-Blue-hTLR-7 cell line was purchased from InvivoGen (Cat. #: hkb-htlr7, San Diego, Calif., USA). These cells were originally designed for studying the stimulation of human TLR7 by monitoring the activation of NF-κB. A SEAP (secreted embryonic alkaline phosphatase) reporter gene was placed under the control of the […] minimal promoter fused to five NF-κB and AP-1-binding sites. The SEAP was induced by activating NF-κB and AP-1 via stimulating HEK-Blue hTLR7 cells with TLR7 ligands. Therefore, the reporter expression was declined by TLR7 antagonist under the stimulation of a ligand, such as R848 (Resiquimod), for incubation of 20 hrs. The cell culture supernatant SEAP reporter activity was determined using QUANTI-Blue™ kit (Cat. #: rep-qb1, Invivogen, San Diego, Calif., USA) at a wavelength of 640 nm, a detection medium that turns purple or blue in the presence of alkaline phosphatase.
Then 20 μL of the supernatant from each well was incubated with […] Quanti-blue substrate solution at 37° C. for 2 hrs and the absorbance was read at 620-655 nm using a spectrophotometer. The signaling pathway that TLR7 activation leads to downstream NF-κB activation has been widely accepted, and therefore similar reporter assay was modified for evaluating TLR7 antagonist.
Take `[2H]c1ccc2c(N3C[C@@H]4CN(c5ncc(C(=O)N6CC7(CN(C)C7)C6)cc5C)CCN4[C@@H](C)C3)ccc(C#N)c2n1` [Example 103, 5-[(4S,9aR)-4-methyl-8-[3-methyl-5-(6-methyl-2,6-diazaspiro[3.3]heptane-2-carbonyl)-2-pyridyl]-3,4,6,7,9,9a-hexahydro-1H-pyrazino[1,2-a]pyrazin-2-yl]-2-deuterio-quinoline-8-carbonitrile]: the pIC50 was 8.22.
The value for `[2H]c1ccc2c(N3C[C@@H]4CN(c5ncc(C(=O)N6CC7(CN(C)C7)C6)cc5C)CCN4[C@H](C)C3)ccc(C#N)c2n1` [Example 102, 5-[(4R,9aR)-4-methyl-8-[3-methyl-5-(6-methyl-2,6-diazaspiro[3.3]heptane-2-carbonyl)-2-pyridyl]-3,4,6,7,9,9a-hexahydro-1H-pyrazino[1,2-a]pyrazin-2-yl]-2-deuterio-quinoline-8-carbonitrile] was 8.40; that for `CO[C@@H]1CN(c2ccc(CCN3CCN4[C@@H](C3)CN(c3ccc(C#N)n5nccc35)C[C@H]4C)cc2)C[C@H]1N` [Example 68, 4-[(4R,9aS)-8-[2-[4-[(3R,4R)-3-amino-4-methoxy-pyrrolidin-1-yl]phenyl]ethyl]-4-methyl-3,4,6,7,9,9a-hexahydro-1H-pyrazino[1,2-a]pyrazin-2-yl]pyrazolo[1,5-a]pyridine-7-carbonitrile] was 7.28; that for `Cc1cc(N2CCN3[C@@H](C2)CN(c2ccc(C#N)c4ncccc24)C[C@H]3C)nc(N2CCNCC2)n1` [Example 31, 5-[(4R,9aR)-4-methyl-8-(6-methyl-2-piperazin-1-yl-pyrimidin-4-yl)-3,4,6,7,9,9a-hexahydro-1H-pyrazino[1,2-a]pyrazin-2-yl]quinoline-8-carbonitrile] was 7.66.
The value for `CO[C@@H]1CN(c2ccc(CCN3CCN4[C@@H](C3)CN(c3ccc(C#N)n5ncc(F)c35)C[C@H]4C)cn2)C[C@H]1N` [Example 67, 4-[(4R,9aS)-8-[2-[6-[(3R,4R)-3-amino-4-methoxy-pyrrolidin-1-yl]-3-pyridyl]ethyl]-4-methyl-3,4,6,7,9,9a-hexahydro-1H-pyrazino[1,2-a]pyrazin-2-yl]-3-fluoro-pyrazolo[1,5-a]pyridine-7-carbonitrile] was 7.19.
`C[C@@H]1CN(c2ccc(C#N)c3ncccc23)C[C@@H]2CN(CCc3ccc(N4CC5(CNCCO5)C4)nc3)CCN21` [Example 59, 5-[(4R,9aS)-4-methyl-8-[2-[6-(5-oxa-2,8-diazaspiro[3.5]nonan-2-yl)-3-pyridyl]ethyl]-3,4,6,7,9,9a-hexahydro-1H-pyrazino[1,2-a]pyrazin-2-yl]quinoline-8-carbonitrile]: the pIC50 is 8.05.
The value for `C[C@@H]1CN(c2ccc(C#N)c3ncccc23)C[C@@H]2CN(Cc3cnc4c(c3)CNCC4)CCN21` [Example 6, 5-[(4R,9aS)-4-methyl-8-(5,6,7,8-tetrahydro-1,6-naphthyridin-3-ylmethyl)-3,4,6,7,9,9a-hexahydro-1H-pyrazino[1,2-a]pyrazin-2-yl]quinoline-8-carbonitrile] was 7.85; that for `[2H]c1ccc2c(N3C[C@@H]4CN(c5ccc([C@H]6CNCCO6)cc5)CCN4[C@@H](C)C3)ccc(C#N)c2n1` [Example 107, 5-[(4S,9aS)-4-methyl-8-[4-[(2S)-morpholin-2-yl]phenyl]-3,4,6,7,9,9a-hexahydro-1H-pyrazino[1,2-a]pyrazin-2-yl]-2-deuterio-quinoline-8-carbonitrile] was 8.52.
The value for `[2H]c1ccc2c(N3C[C@@H]4CN(c5ccc(CCN6C[C@H](OC)[C@@H](N)C6)cn5)CCN4[C@@H](C)C3)ccc(C#N)c2n1` [Example 122, 5-[(4S,9aR)-8-[5-[2-[(3S,4S)-3-amino-4-methoxy-pyrrolidin-1-yl]ethyl]-2-pyridyl]-4-methyl-3,4,6,7,9,9a-hexahydro-1H-pyrazino[1,2-a]pyrazin-2-yl]-2-deuterio-quinoline-8-carbonitrile] was 8.05; that for `Cc1cc(N2CCN3[C@@H](C2)CN(c2ccc(C#N)c4ncccc24)C[C@H]3C)cc(N2CC(C)(N)C2)n1` [Example 73, 5-[(4R,9aS)-8-[2-(3-amino-3-methyl-azetidin-1-yl)-6-methyl-4-pyridyl]-4-methyl-3,4,6,7,9,9a-hexahydro-1H-pyrazino[1,2-a]pyrazin-2-yl]quinoline-8-carbonitrile] was 7.60.
For `CO[C@@H]1CN(c2ccc(CCN3CCN4[C@@H](C3)CN(c3ccc(C#N)c5ncccc35)C[C@H]4C)cc2)C[C@H]1N` [Example 26, 5-[(4R,9aS)-8-[2-[4-[(3R,4R)-3-amino-4-methoxy-pyrrolidin-1-yl]phenyl]ethyl]-4-methyl-3,4,6,7,9,9a-hexahydro-1H-pyrazino[1,2-a]pyrazin-2-yl]quinoline-8-carbonitrile], the pIC50 was 7.74.
For `C[C@@H]1CN(c2ccc(C#N)c3ncccc23)C[C@@H]2CN(c3ccnc(N4CCNCC4)n3)CCN21` [Example 33, 5-[(4R,9aR)-4-methyl-8-(2-piperazin-1-ylpyrimidin-4-yl)-3,4,6,7,9,9a-hexahydro-1H-pyrazino[1,2-a]pyrazin-2-yl]quinoline-8-carbonitrile], the pIC50 is 8.00.
Consider `[2H]c1ccc2c(N3C[C@@H]4CN(c5ncc(N6CC7CC(C6)N7)cc5C)CCN4[C@@H](C)C3)ccc(C#N)c2n1` [Example 108, 5-[(4S,9aR)-8-[5-(3,6-diazabicyclo[3.1.1]heptan-3-yl)-3-methyl-2-pyridyl]-4-methyl-3,4,6,7,9,9a-hexahydro-1H-pyrazino[1,2-a]pyrazin-2-yl]-2-deuterio-quinoline-8-carbonitrile], for which the pIC50 was 8.52.
On to `C[C@@H]1CN(c2ccc(C#N)n3ncc(F)c23)C[C@@H]2CN(CCc3ccc(N4CC(C)(N)C4)nc3)CCN21` [Example 74, 4-[(4R,9aS)-8-[2-[6-(3-amino-3-methyl-azetidin-1-yl)-3-pyridyl]ethyl]-4-methyl-3,4,6,7,9,9a-hexahydro-1H-pyrazino[1,2-a]pyrazin-2-yl]-3-fluoro-pyrazolo[1,5-a]pyridine-7-carbonitrile], for which the pIC50 was 7.55.
Take `C[C@@H]1CN(c2ccc(C#N)c3ncccc23)C[C@@H]2CN(Cc3cncc(N4CCNCC4)c3)CCN21` [Example 57, 5-[(4R,9aS)-4-methyl-8-[(5-piperazin-1-yl-3-pyridyl)methyl]-3,4,6,7,9,9a-hexahydro-1H-pyrazino[1,2-a]pyrazin-2-yl]quinoline-8-carbonitrile]: the pIC50 was 7.64.
The value for `[2H]c1ccc2c(N3C[C@@H]4CN(CCc5ccc(N6C[C@@H](N)[C@H](OC)C6)nc5)CCN4[C@H](C)C3)ccc(C#N)c2n1` [Example 62, 5-[(4R,9aS)-8-[2-[6-[(3R,4R)-3-amino-4-methoxy-pyrrolidin-1-yl]-3-pyridyl]ethyl]-4-methyl-3,4,6,7,9,9a-hexahydro-1H-pyrazino[1,2-a]pyrazin-2-yl]-2-deuterio-quinoline-8-carbonitrile] was 7.64; that for `C[C@@H]1CN(c2ccc(C#N)c3ncccc23)C[C@@H]2CN(CCc3ccc(N4CC(C)(N)C4)nc3)CCN21` [Example 65, 5-[(4R,9aS)-8-[2-[6-(3-amino-3-methyl-azetidin-1-yl)-3-pyridyl]ethyl]-4-methyl-3,4,6,7,9,9a-hexahydro-1H-pyrazino[1,2-a]pyrazin-2-yl]quinoline-8-carbonitrile] was 7.72; that for `C[C@@H]1CN(c2ccc(C#N)c3ncccc23)C[C@@H]2CN(CCc3ccc(N4CCNCC4)nc3)CCN21` [Example 11, 5-[(4R,9aS)-4-methyl-8-[2-(6-piperazin-1-yl-3-pyridyl)ethyl]-3,4,6,7,9,9a-hexahydro-1H-pyrazino[1,2-a]pyrazin-2-yl]quinoline-8-carbonitrile] was 8.15.

These data come from US20220340597A1, “HEXAHYDRO-1H-PYRAZINO[1,2-A]PYRAZINE COMPOUNDS FOR THE TREATMENT OF AUTOIMMUNE DISEASE” (Hoffmann-La Roche Inc., priority 2019, published 2022).
